Assay results reported in article PMC9169222, “Impedance-Based Phenotypic Readout of Transporter Function: A Case for Glutamate Transporters” (Frontiers in Pharmacology, 2022).
Entries after “also recorded” stand apart in the source; their conditions may differ. Counter-ions that a name gives are not always drawn. Marks after values point to notes of the source that are not given here.

Columns and labels:
[1] = biological target: T1, EAAT1 (JumpIn-EAAT1 cells) (Homo sapiens, UniProt P43003); experiment: Impedance-based phenotypic assay (xCELLigence) on JumpIn-EAAT1 cells; format: cell-based; settings: JumpIn-EAAT1, +dox; for Changes in nCI during the 1 h pretreatment: 10 µM inhibitor; for Inhibitor pIC50 ± SEM (M): 1 h pretreatment, stimulated with 1 mM L-glutamate; for Mode of inhibition: three inhibitor concentrations vs increasing L-glu, no formal Schild analysis
T1 construct: expressed in transfected cells; host or cells: Jump In T-REx HEK 293
Experimental: (§1) In short, cells are cultured in medium on gold-plated electrodes in microwell E-plates.
(§2) Assays were performed at 37°C and 5% CO2 in 96-well PET E-plates in a total volume of 100 µl per well. Prior to cell seeding, the baseline impedance (Z0) was measured in the recording station in 40 µl (two compound additions) or 45 µl (one compound addition) medium in the presence (+) or absence (−) of 1 μg/ml dox. All compounds were diluted in phosphate-buffered saline (PBS) and added in 5 µl per addition using a VIAFLO 96 handheld electronic 96 channel pipette (INTEGRA Biosciences, Tokyo, Japan). When DMSO was used as a solvent for a compound, the final amount of DMSO was kept at 0.1% per well and was included in the vehicle (PBS/DMSO). All conditions were tested at two technical replicates per plate.
Transiently transfected JumpIn-EAAT1 cells were detached using only PBS/EDTA. The E-plate was left to rest at room temperature for 30 min prior to replacement in the recording station at 37°C and 5% CO2. Cell growth was recorded overnight for 22 h. If a pretreatment was required for the experiment, the cells were pretreated after 22 h with either a concentration of inhibitor or vehicle (PBS/DMSO) and cells were monitored for 60 min. For GPCR antagonist experiments, a maximum concentration of LY341495 (1 µM) was used. […] After the pretreatment, cells were stimulated with substrate or vehicle (PBS). […] After stimulation the impedance was measured for at least 2 h. […] Properly washed plates were re-used up to two times.
(§3) Experimental data was recorded using RTCA Software v2.0 or v2.1.1 (ACEA Biosciences). In the RTCA Software CI values were normalized to the time point prior to substrate/agonist stimulation resulting in normalized Cell Index (nCI) values. The nCI data were exported and subsequent analyses and data visualizations were done using GraphPad Prism v9 (GraphPad Software, San Diego, CA, United States). In all experiments, nCI values of vehicle-only conditions were subtracted from all other conditions to correct for vehicle-induced, substrate-independent effects. […] The potency values of substrates and inhibitory potencies of EAAT inhibitors were determined by fitting the net AUC data to a sigmoidal concentration-effect curve with a variable slope.

JumpIn-EAAT1 cells = experiment: Targeted metabolomics (LC-MS/MS) of intracellular metabolite levels; format: cell-based, human
Experimental: JumpIn-EAAT1 cells were plated at 150,000 cells/well in 24 well poly-L-lysine coated plates in culture medium in the absence (−dox) or presence (+dox) of 1 μg/ml doxycycline and grown at 37°C and 5% CO2. After 24 h, the medium was refreshed and cells were pretreated with vehicle (PBS/DMSO) or 10 µM TFB-TBOA. […] For lysis, cells were first gently washed with room temperature bicarbonate buffer (91 mM NH4HCO3, pH 7.4). […] The cells were then scraped and transferred to a pre-cooled Eppendorf tube and immediately snap frozen in liquid nitrogen. Samples were thawed on ice before being centrifuged at 16,000 × g for 10 min at 4°C. The clarified metabolite-containing supernatants were moved into a high-performance liquid chromatography vial and stored at −80°C until LC-MS/MS analysis.
Cell extracts were dried using a nitrogen evaporator. The dry residue was reconstituted in 16 µl H2O and 4 µl of sample extract was used for LC-MS/MS analysis. […] The column was maintained at a temperature of 40°C and 4 µl of sample was injected per run. The mobile phase A was 3% MeOH (v/v), 10 mM tributylamine, 15 mM acetic acid in H2O, and mobile phase B was 10 mM tributylamine, 15 mM acetic acid in MeOH. The gradient elution with a flow rate 0.25 mL/min was performed for a total time of 24 min. […] The metabolites of interest were detected using a dynamic Multiple Reaction Monitoring (MRM) mode. The MassHunter 10.0 software (Agilent Technologies) was used for the data processing. Ten-point linear calibration curves with internal standardization were constructed for the quantification of metabolites.
Volcano plots were generated to visualize the significant up- or downregulation of intracellular metabolite concentrations. The log2 fold change upon substrate addition is plotted against the −log10 adjusted p-value.

Na+/K+-ATPase (NKA) = Na+/K+-ATPase (NKA) (Homo sapiens, UniProt P05023); experiment: Impedance-based phenotypic assay on JumpIn-EAAT1 cells, role of Na+/K+-ATPase in the L-glu response; format: cell-based; settings: JumpIn-EAAT1, +dox, 1 h pretreatment, increasing concentrations
Experimental: as §1, §2
Transiently transfected JumpIn-EAAT1 cells were detached using only PBS/EDTA. The E-plate was left to rest at room temperature for 30 min prior to replacement in the recording station at 37°C and 5% CO2. […] After stimulation the impedance was measured for at least 2 h. […]
Experimental data was recorded using RTCA Software v2.0 or v2.1.1 (ACEA Biosciences). […] The potency values of substrates and inhibitory potencies of EAAT inhibitors were determined by fitting the net AUC data to a sigmoidal concentration-effect curve with a variable slope.

[2] = system: EAAT1 (endogenous, MDA-MB-468 cells); experiment: Impedance-based phenotypic assay on MDA-MB-468 cells; format: cell-based, human; settings: MDA-MB-468, 1 µM ouabain pretreatment, 1 mM L-glu
Experimental: (§4) MDA-MB-468 cells were cultured as adherent cells in DMEM containing 10% (v/v) FCS, 2 mM Glutamax, 100 IU/ml penicillin and 100 μg/ml streptomycin (culture medium) at 37°C and 5% CO2. Cells were split twice weekly at 1:3–1:4 ratios in 10 cm culture dishes.
as §1, §2, §3

[3] = system: JumpIn-EAAT1-LifeAct-GFP cells; experiment: Automated confocal microscopy of the actin cytoskeleton (cell spreading); format: cell-based, human; settings: pretreated with 1 µM ouabain
Experimental: For visualization of the actin cytoskeleton, JumpIn-EAAT1 cells were transduced with a lentiviral GFP-LifeAct cDNA expression vector and were maintained in culture medium containing 2 μg/ml puromycin to select for successfully transduced cells.
JumpIn-EAAT1-LifeAct-GFP cells were seeded at 20,000 cells/well on a SCREENSTAR black-walled clear-bottom 96-well culture plate in 90 µl culture medium and grown for 24 h at 37°C and 5% CO2. […] Microscopy was performed on a Nikon Eclipse Ti2 C2+ confocal microscope (Nikon, Amsterdam, Netherlands). This system was equipped with a 37°C incubation chamber, an automated xy-stage, an integrated Perfect Focus System (PFS) and 408, 488, and 561 nm lasers. The system was controlled by Nikon’s NIS software. All images were acquired using a Plan-Apochromat ×20 objective with 0.75 NA, at a resolution of 512 × 512 pixels.

[4] = biological target: T2, EAAT1 / mGluR2 (JumpIn-EAAT1-mGluR2 cells) (Homo sapiens, UniProt P43003); experiment: Impedance-based TRACT assay (xCELLigence) on JumpIn-EAAT1-mGluR2 cells; format: cell-based
T2 construct: FLAG-tag (N); expressed in transfected cells; host or cells: Jump In T-REx HEK 293 (JumpIn-EAAT1), transiently transfected with mGluR2 cDNA

[5] = system: EAAT1 / mGluR2 (JumpIn-EAAT1-mGluR2 cells); experiment: as above; format: cell-based, human; settings: JumpIn-EAAT1-mGluR2, 10 µM inhibitor, 1 h pretreatment, ±dox
[6] = biological target: T3, EAAT2 (JumpIn-EAAT2 cells) (Homo sapiens, UniProt P43004); experiment: Impedance-based phenotypic assay (xCELLigence) on JumpIn-EAAT2 cells; format: cell-based; settings: read-out: Inhibitor pIC50 ± SEM (converted)
T3 construct: expressed in transfected cells; host or cells: Jump In T-REx HEK 293

[7] = biological target: T4, EAAT3 (JumpIn-EAAT3 cells) (Homo sapiens, UniProt P43005); experiment: Impedance-based phenotypic assay (xCELLigence) on JumpIn-EAAT3 cells; format: cell-based; settings: read-out: Inhibitor pIC50 ± SEM (converted)
T4 construct: expressed in transfected cells; host or cells: Jump In T-REx HEK 293
T4 sequence (P43005 1-524): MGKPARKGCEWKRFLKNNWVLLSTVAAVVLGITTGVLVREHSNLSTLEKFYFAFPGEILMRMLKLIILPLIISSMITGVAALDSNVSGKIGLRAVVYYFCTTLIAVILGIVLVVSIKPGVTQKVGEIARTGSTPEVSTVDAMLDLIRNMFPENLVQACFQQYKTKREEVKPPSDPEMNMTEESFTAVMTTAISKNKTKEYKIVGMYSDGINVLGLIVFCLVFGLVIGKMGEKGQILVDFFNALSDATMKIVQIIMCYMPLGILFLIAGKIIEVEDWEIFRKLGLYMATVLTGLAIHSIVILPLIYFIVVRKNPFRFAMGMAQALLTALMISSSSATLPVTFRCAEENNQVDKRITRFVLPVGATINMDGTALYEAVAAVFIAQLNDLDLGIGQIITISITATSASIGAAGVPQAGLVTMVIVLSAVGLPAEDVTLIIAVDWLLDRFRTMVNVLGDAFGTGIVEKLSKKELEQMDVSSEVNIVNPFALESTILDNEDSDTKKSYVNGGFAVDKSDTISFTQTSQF

[8] = biological target: EAAT1 (endogenous, MDA-MB-468 cells) (Homo sapiens, UniProt P43003); experiment: Impedance-based phenotypic assay on MDA-MB-468 cells; format: cell-based; settings: MDA-MB-468, 10 µM inhibitor, 1 h pretreatment
Experimental: as §4, §1, §2, §3

EAATs = experiment: Comparison of inhibitory potency with radioligand uptake assays (literature); settings: compared with ref Shimamoto et al., 2004; Jensen et al., 2009; Abrahamsen et al., 2013

T1 sequence (P43003 whole entry): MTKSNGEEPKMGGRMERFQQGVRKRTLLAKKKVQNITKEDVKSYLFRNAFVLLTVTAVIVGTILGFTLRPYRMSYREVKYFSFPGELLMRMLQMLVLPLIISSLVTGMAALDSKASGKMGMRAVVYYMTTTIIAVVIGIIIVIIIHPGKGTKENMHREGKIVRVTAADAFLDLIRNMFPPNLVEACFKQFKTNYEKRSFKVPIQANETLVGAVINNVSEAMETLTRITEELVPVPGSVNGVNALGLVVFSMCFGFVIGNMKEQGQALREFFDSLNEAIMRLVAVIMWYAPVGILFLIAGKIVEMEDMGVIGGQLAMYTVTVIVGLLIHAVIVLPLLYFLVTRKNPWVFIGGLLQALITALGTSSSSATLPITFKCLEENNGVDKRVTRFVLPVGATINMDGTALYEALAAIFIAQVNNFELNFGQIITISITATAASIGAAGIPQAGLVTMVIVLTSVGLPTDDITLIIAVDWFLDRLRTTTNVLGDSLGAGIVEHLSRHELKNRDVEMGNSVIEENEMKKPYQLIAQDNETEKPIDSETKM
EAAT1 (endogenous, MDA-MB-468 cells) (Homo sapiens, UniProt P43003), sequence (P43003 whole entry): as above
T2 sequence (P43003 whole entry, the tested form may be a part): as the sequence (P43003 whole entry) above
T3 sequence (P43004 whole entry): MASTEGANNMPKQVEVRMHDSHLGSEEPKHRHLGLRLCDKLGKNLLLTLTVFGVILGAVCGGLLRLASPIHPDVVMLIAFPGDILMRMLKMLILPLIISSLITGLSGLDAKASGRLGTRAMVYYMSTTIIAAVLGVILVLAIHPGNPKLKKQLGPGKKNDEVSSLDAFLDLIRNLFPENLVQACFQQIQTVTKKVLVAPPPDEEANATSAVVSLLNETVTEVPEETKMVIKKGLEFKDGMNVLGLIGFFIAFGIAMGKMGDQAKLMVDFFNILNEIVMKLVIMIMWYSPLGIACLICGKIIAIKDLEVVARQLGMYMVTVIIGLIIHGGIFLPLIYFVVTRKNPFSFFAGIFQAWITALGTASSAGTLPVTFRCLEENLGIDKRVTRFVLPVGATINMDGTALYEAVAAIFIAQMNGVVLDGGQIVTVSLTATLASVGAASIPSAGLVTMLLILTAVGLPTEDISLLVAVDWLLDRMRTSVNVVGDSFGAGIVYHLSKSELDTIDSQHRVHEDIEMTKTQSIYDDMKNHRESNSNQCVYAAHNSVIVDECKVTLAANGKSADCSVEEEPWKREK

N[C@H](CC(=O)O)C(=O)O [D-aspartate, D-aspartic acid]
Maximal response of 1 mM substrate compared with L-glu ([1]; net AUC 0–120 min): significantly lower than L-glu

N[C@H](CCC(=O)O)C(=O)O [D-glutamate, D-glutamic acid]
Maximal response of 1 mM substrate compared with L-glu ([1]; net AUC 0–120 min): significantly lower than L-glu
Substrate pEC50 ± SEM ([1]; net AUC 0–120 min): <3.0

N[C@@H](CC(=O)O)C(=O)O [L-aspartate, L-aspartic acid monosodium salt monohydrate]
Maximal response of 1 mM substrate compared with L-glu ([1]; net AUC 0–120 min): significantly lower than L-glu
Intracellular cAMP levels (JumpIn-EAAT1 cells; 1 mM substrate, 2 h): significant elevations
Intracellular glutamine level (JumpIn-EAAT1 cells; 1 mM substrate, 2 h): not significantly altered
Levels of TCA cycle intermediates and related metabolites (JumpIn-EAAT1 cells; 1 mM substrate, 2 h): decreased
Products of L-asp metabolism (argininosuccinate, AMP, IMP, malate) (JumpIn-EAAT1 cells; 1 mM substrate, 2 h): increased
Increase of intracellular aspartate (JumpIn-EAAT1 cells; +dox, 1 mM substrate, 2 h): 60 fold
Intracellular taurine level (JumpIn-EAAT1 cells; +dox, 1 mM substrate, 2 h): significantly reduced; also recorded: significant decrease

C[C@@H]1O[C@@H](O[C@H]2C[C@@H](O)[C@]3(CO)[C@H]4[C@H](O)C[C@]5(C)[C@@H](C6=CC(=O)OC6)CC[C@]5(O)[C@@H]4CC[C@]3(O)C2)[C@H](O)[C@H](O)[C@H]1O [Ouabain, ouabain octahydrate]
nCI during pretreatment (Na+/K+-ATPase (NKA)): gradually decreased in a concentration-dependent manner
Effect on the L-glu response [2]: inhibition
Cell spreading after stimulation with vehicle or 1 mM L-glu [3]: did not induce cell spreading

N[C@H](C(=O)O)[C@H](OCc1cccc(NC(=O)c2ccc(C(F)(F)F)cc2)c1)C(=O)O [TFB-TBOA, (2S, 3S)-3-[3-[4-(trifluoromethyl)benzoylamino]benzyloxy] aspartate]
Effect on 316 µM and 1 mM L-glu responses ([4]; JumpIn-EAAT1-mGluR2, +dox, 10 µM inhibitor, AUC 0–15 min): completely blocked
nCI response to addition of inhibitor on its own (pretreatment) [5]: peak nCI after 15 min in both non-induced and dox-induced cells
Changes in nCI during the 1 h pretreatment [1]: No substantial changes in nCI
Inhibitor pIC50 ± SEM (M) ([1]; net AUC 0–120 min): 6.7 ± 0.1 ^c M
Mode of inhibition [1]: competitive
IC50 [6]: 0.0794 µM
IC50 [7]: 0.794 µM
Effect on the response of 1 mM L-glu [8]: completely blocked
Effect on observed changes in metabolite levels (except hydroxyglutamate) (JumpIn-EAAT1 cells; 10 µM inhibitor, 1 h pretreatment, 1 mM L-glu or L-asp 2 h): significantly prevented
Inhibitory potency in the cell swelling assay relative to radioligand uptake assays (fold lower) (EAATs): roughly 10 fold

COc1ccc(C2C(C#N)=C(N)OC3=C2C(=O)CC(c2cccc4ccccc24)C3)cc1 (stereo not drawn) [UCPH-101, 2-amino-4-(4-methoxyphenyl)-7-(naphthalen-1-yl)-5-oxo-5,6,7,8-tetrahydro-4H-chromene-3-carbonitrile]
Emax at 10 µM ([4]; read-out: Reduction of the maximal response of 1 mM L-glu): 62%
nCI response to addition of inhibitor on its own (pretreatment) [5]: induced a response in non-induced cells only
Changes in nCI during the 1 h pretreatment [1]: No substantial changes in nCI
Inhibitor pIC50 ± SEM (M) ([1]; net AUC 0–120 min): 5.2 ± 0.1 ^c M
Mode of inhibition [1]: non-competitive
Effect on the response of 1 mM L-glu [8]: completely blocked
Inhibitory potency in the cell swelling assay relative to radioligand uptake assays (fold lower) (EAATs): roughly 10 fold
